Experimental data reported in patent US20240059691A1 (KALVISTA PHARMACEUTICALS LIMITED, priority 2020, published 2024).

Legend:
Format in all cases: biochemical
[1] = target: Human Factor XIIa (Homo sapiens (Human), UniProt P00748); experiment: Determination of FXIIa inhibition (fluorogenic substrate H-DPro-Phe-Arg-AFC, IC50 assay); conditions: substrate H-DPro-Phe-Arg-AFC at Km, 25° C.; class scale A-G
How it was run: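 Human FXIIa incubated at 25° C with fluorogenic substrate H-DPro-Phe-Arg-AFC at its Km concentration and varying compound concentrations. Fluorescence release monitored over 5 min at 25° C; linear rate expressed as % of uninhibited activity to derive IC50.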

[2] = target: Plasma Kallikrein (Homo sapiens (Human), UniProt P03952); experiment: Determination of related protease inhibition: Plasma Kallikrein (fluorogenic substrate at Km); conditions: 25° C., read-out: IC50 (human PKal)
How it was run: (§1)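 Human protease + fluorogenic substrate (at Km) + test cpd, varied concns; fluorescence kinetic read 5 min, 25 °C. Linear slope → % activity vs uninhibited control; IC50 at 50% inhibition.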

[3] = target: KLK1 (Homo sapiens (Human), UniProt P06870); experiment: Determination of related protease inhibition: KLK1 (fluorogenic substrate at Km); conditions: 25° C.
How it was run: as §1

[4] = target: FXa (Homo sapiens (Human), UniProt P00742); experiment: Determination of related protease inhibition: FXa (fluorogenic substrate at Km); conditions: 25° C.
How it was run: as §1

[5] = target: Thrombin (Homo sapiens (Human), UniProt P00734); experiment: Determination of related protease inhibition: Thrombin (fluorogenic substrate at Km); conditions: 25° C.
Protocol: Determination of Related Protease Inhibition
In vitro inhibition of related proteases was determined using an ([…] assay based on standard literature methods (see e.g. Shori et al., Biochem. Pharmacol., 1992, 43, 1209; Bouckaert et al., European Journal of Medicinal Chemistry 110 (2016) 181). Human serine protease enzymes Plasma Kallikrein, KLK1, FXa, Plasmin, Thrombin and Trypsin were assayed for enzymatic activity using an appropriate fluorogenic substrate at Km concentration, FXIa at fixed substrate concentration of 100 μM, and various concentrations of the test compound. Protease activity was measured by monitoring the accumulation of liberated fluorescence from the substrate over […]. The linear rate of fluorescence increase per minute was expressed as percentage (%) activity. IC50 values were calculated as the concentration of inhibitor giving 50% inhibition of the uninhibited enzyme activity (100%).

KLK1, sequence (P06870 25-262): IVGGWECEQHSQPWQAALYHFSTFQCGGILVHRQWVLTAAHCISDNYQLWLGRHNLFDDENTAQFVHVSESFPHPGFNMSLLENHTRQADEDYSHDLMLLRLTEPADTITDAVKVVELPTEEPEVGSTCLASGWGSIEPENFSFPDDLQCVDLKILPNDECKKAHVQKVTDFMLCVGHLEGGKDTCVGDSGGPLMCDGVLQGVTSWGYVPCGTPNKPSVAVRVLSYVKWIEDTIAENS
Human Factor XIIa, sequence (P00748 373-615): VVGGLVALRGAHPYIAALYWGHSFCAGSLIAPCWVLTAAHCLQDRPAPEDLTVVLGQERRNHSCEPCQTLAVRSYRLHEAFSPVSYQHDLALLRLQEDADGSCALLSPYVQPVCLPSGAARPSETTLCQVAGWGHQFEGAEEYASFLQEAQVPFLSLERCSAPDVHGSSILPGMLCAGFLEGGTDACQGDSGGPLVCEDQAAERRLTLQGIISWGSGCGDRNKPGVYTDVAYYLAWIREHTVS
Plasma Kallikrein, sequence (P03952 391-638): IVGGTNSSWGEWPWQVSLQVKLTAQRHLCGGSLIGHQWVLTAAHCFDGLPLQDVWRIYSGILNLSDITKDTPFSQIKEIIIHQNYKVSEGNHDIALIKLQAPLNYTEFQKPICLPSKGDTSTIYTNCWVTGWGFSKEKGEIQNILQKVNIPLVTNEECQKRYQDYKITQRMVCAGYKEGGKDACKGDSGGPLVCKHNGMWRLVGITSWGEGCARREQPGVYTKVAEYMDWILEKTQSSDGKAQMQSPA
Plasma Kallikrein, sequence (P03952 20-390 partner): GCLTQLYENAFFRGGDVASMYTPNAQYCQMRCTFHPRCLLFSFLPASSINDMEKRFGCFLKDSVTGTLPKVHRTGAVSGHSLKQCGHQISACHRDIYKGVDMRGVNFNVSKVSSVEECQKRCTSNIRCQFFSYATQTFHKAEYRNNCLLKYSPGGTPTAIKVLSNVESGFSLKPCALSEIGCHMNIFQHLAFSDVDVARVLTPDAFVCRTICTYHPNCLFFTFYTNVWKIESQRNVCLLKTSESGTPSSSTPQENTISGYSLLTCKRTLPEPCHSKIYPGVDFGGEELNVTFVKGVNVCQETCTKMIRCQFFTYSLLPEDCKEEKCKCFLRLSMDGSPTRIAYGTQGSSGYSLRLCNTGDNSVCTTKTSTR
FXa, sequence (P00742 235-488): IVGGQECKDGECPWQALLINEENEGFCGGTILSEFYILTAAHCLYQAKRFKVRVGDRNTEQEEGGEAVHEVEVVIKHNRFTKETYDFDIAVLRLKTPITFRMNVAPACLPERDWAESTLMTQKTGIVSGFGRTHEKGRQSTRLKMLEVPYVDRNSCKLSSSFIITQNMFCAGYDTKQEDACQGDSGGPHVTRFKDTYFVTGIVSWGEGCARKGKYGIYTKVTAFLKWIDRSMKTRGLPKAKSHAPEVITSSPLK
FXa, sequence (P00742 41-179 partner): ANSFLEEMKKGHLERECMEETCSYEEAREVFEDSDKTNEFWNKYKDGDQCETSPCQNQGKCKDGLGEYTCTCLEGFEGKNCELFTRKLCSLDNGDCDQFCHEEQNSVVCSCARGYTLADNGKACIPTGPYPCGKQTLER

Structure (SMILES)	IC50 [1] [µM]	IC50 [2] [µM]	IC50 [3] [µM]	IC50 [4] [µM]	IC50 [5] [µM]
Nc1nccc2c(NCc3ccc(OCC4CCn5ccnc5C4)nc3)cccc12 (single isomer, unassigned) [Example 1030, (S*)-N5-((6-((5,6,7,8-tetrahydroimidazo[1,2-a]pyridin-7-yl)methoxy)pyridin-3-yl)methyl)isoquinoline-1,5-diamine]	0.3 to 1	10 to 40	3 to 10	10 to 40	10 to 40
CN1CCC(COc2cc(CNc3ccnc4c(N)nccc34)ccn2)CC1 [Example 4272, 4-N-[[2-[(1-methyl-4-piperidyl)methoxy]-4-pyridyl]methyl]-1,7-naphthyridine-4,8-diamine]	3 to 10	> 40	> 40	> 40	> 40
CN1CCC(CNc2ccc(CNc3ccc4cnccc4c3F)cn2)CC1 [Example 1224, 5-fluoro-N-((6-(((1-methylpiperidin-4-yl)methyl)amino)pyridin-3-yl)methyl)isoquinolin-6-amine]	3 to 10	> 40	> 40	> 40	> 100
Cc1nnc2n1CCN(c1ccc(CNc3cccc4c(N)nccc34)cn1)C2 [Example 1279, N5-((6-(3-methyl-5,6-dihydro-[1,2,4]triazolo[4,3-a]pyrazin-7(8H)-yl)pyridin-3-yl)methyl)isoquinoline-1,5-diamine]	0.1 to 0.3	> 40	3 to 10	> 40	> 40
Nc1nccc2c(NCc3ccc(N4CCn5c(nnc5C(F)(F)F)C4)nc3)cccc12 [Example 1275, N5-((6-(3-(trifluoromethyl)-5,6-dihydro-[1,2,4]triazolo[4,3-a]pyrazin-7(8H)-yl)pyridin-3-yl)methyl)isoquinoline-1,5-diamine]	0.3 to 1	> 40	3 to 10	> 40	> 40
CN1CCC(CNc2cc(CNc3cccc4c(N)nccc34)ccn2)CC1 [Example 4286, N5-((2-(((1-methylpiperidin-4-yl)methyl)amino)pyridin-4-yl)methyl)isoquinoline-1,5-diamine]	0.3 to 1	10 to 40	3 to 10	> 40	> 40
CC(C)N1C[C@H]2C[C@@H]1CN2Cc1cc(CNc2cccc3c(N)nccc23)ccn1 [Example 4294, 5-N-[(2-{[(1R,4R)-5-isopropyl-2,5-diazabicyclo[2.2.1]heptan-2-yl]methyl}pyridin-4-yl)methyl]isoquinoline-1,5-diamine]	10 to 40	> 40	10 to 40	> 40	> 40
CN1CC2CC1CC2COc1cc(CNc2cccc3c(N)nccc23)ccn1 (stereo not drawn) [Example 4276, 5-N-{[2-({2-methyl-2-azabicyclo[2.2.1]heptan-5-yl}methoxy)pyridin-4-yl]methyl}isoquinoline-1,5-diamine]	0.3 to 1	> 40	3 to 10	3 to 10	> 40
Nc1nccc2cc(NCc3ccnc(-c4cccc(CN5CCCC5)c4)c3)ccc12 [Example 4434, 6-N-({2-[3-(pyrrolidin-1-ylmethyl)phenyl]pyridin-4-yl}methyl)isoquinoline-1,6-diamine]	0.1 to 0.3	> 40	3 to 10	3 to 10	> 40
CN1CCC(COc2cc(CNc3cccc4c(N)nccc34)cc(C(F)(F)F)n2)CC1 [Example 4281, 5-N-[[2-[(1-methyl-4-piperidyl)methoxy]-6-(trifluoromethyl)-4-pyridyl]methyl]isoquinoline-1,5-diamine]	0.3 to 1	> 40	3 to 10	> 40	> 40
CN1C[C@H](COc2cc(CNc3cccc4c(N)nccc34)ccn2)OC1=O [Example 4280, (5R)-5-{[(4-{[(1-aminoisoquinolin-5-yl)amino]methyl}pyridin-2-yl)oxy]methyl}-3-methyl-1,3-oxazolidin-2-one]	10 to 40	> 40	10 to 40	> 40	> 40
CN1CCC(CNc2ccc(CNc3ccc4c(N)nccc4c3)cn2)CC1 [Example 1033, N6-((6-(((1-methylpiperidin-4-yl)methyl)amino)pyridin-3-yl)methyl)isoquinoline-1,6-diamine]	0.01 to 0.1	1 to 3	0.3 to 1	3 to 10	3 to 10
Cn1ccnc1COCc1ccc(CNc2cccc3c(N)nccc23)c(F)c1 [Example 2207, N5-(2-fluoro-4-(((1-methyl-1H-imidazol-2-yl)methoxy)methyl)benzyl)isoquinoline-1,5-diamine]	1 to 3	3 to 10	10 to 40	10 to 40	10 to 40
Cn1ccnc1CCCOc1ncc(CNc2cccc3c(N)nccc23)cn1 [Example 1035, N5-((2-(3-(1-methyl-1H-imidazol-2-yl)propoxy)pyrimidin-5-yl)methyl)isoquinoline-1,5-diamine]	3 to 10	> 40	10 to 40	> 40	> 40
CN1CCC(NC(=O)c2cc(CNc3cccc4c(N)nccc34)ccn2)CC1 [Example 4289, 4-(((1-aminoisoquinolin-5-yl)amino)methyl)-N-(1-methylpiperidin-4-yl)picolinamide]	0.3 to 1	> 40	10 to 40	> 40	> 40
CN1CCC(CNc2cc(CNc3ccc4c(N)nccc4c3)ccn2)CC1 [Example 4284, 6-N-[(2-{[(1-methylpiperidin-4-yl)methyl]amino}pyridin-4-yl)methyl]isoquinoline-1,6-diamine]	0.1 to 0.3	10 to 40	1 to 3	0.3 to 1	10 to 40
CN1[C@@H]2COC[C@H]1CC(OCc1ccc(CNc3cccc4c(N)nccc34)c(F)c1)C2 (stereo partly drawn) [Example 2254, N5-(2-fluoro-4-((((1R,5S)-9-methyl-3-oxa-9-azabicyclo[3.3.1]nonan-7-yl)oxy)methyl)benzyl)isoquinoline-1,5-diamine]	0.1 to 0.3	> 40	10 to 40	10 to 40	> 40
Cn1ccnc1CC(=O)NCc1ccc(CNc2cccc3c(N)nccc23)c(F)c1 [Example 2211, N-(4-(((1-aminoisoquinolin-5-yl)amino)methyl)-3-fluorobenzyl)-2-(1-methyl-1H-imidazol-2-yl)acetamide]	10 to 40	> 40	10 to 40	> 40	> 40
CN1CCC(CNc2cc(CNc3ccc4c(N)ncc(Cl)c4c3)ccn2)CC1 [Example 4285, 4-Chloro-N6-((2-(((1-methylpiperidin-4-yl)methyl)amino)pyridin-4-yl)methyl)isoquinoline-1,6-diamine]	0.01 to 0.1	> 40	3 to 10	10 to 40	> 40
CC(=O)N1CC2CC1CC2COc1cc(CNc2cccc3c(N)nccc23)ccn1 (stereo not drawn) [Example 4274, 1-(5-(((4-(((1-Aminoisoquinolin-5-yl)amino)methyl)pyridin-2-yl)oxy)methyl)-2-azabicyclo[2.2.1]heptan-2-yl)ethan-1-one]	1 to 3	> 40	3 to 10	1 to 3	10 to 40
CN1CC2C(COc3cc(CNc4ccc5c(N)nccc5c4)ccn3)C2C1 (stereo not drawn) [Example 4269, N6-((2-((3-methyl-3-azabicyclo[3.1.0]hexan-6-yl)methoxy)pyridin-4-yl)methyl)isoquinoline-1,6-diamine]	0.1 to 0.3	3 to 10	0.3 to 1	0.01 to 0.1	0.3 to 1
CN1CCC(CNc2ccc(CNc3ccnc(N)c3)cn2)CC1 [Example 1096, N4-((6-(((1-methylpiperidin-4-yl)methyl)amino)pyridin-3-yl)methyl)pyridine-2,4-diamine]	3 to 10	> 40	10 to 40	10 to 40	10 to 40
CN1CC2CCC(C1)C2COc1cc(CNc2ccc3c(N)nccc3c2)ccn1 (stereo not drawn) [Example 4270, N6-((2-((3-methyl-3-azabicyclo[3.2.1]octan-8-yl)methoxy)pyridin-4-yl)methyl)isoquinoline-1,6-diamine]	0.01 to 0.1	3 to 10	0.3 to 1	0.01 to 0.1	1 to 3
CN1CCC(COc2cc(CNc3nccc4c(N)ccnc34)ccn2)CC1 [Example 4273, N8-((2-((1-methylpiperidin-4-yl)methoxy)pyridin-4-yl)methyl)-1,7-naphthyridine-4,8-diamine]	3 to 10	> 40	10 to 40	3 to 10	> 40
